17 compounds from patent publication US20230107642A1 (Erasca, Inc., priority 2020, published 2023) can be followed below.

The target of one test is T1, K-Ras G12C (Homo sapiens, UniProt P01116, G12C).
T1 construct: This protein contained 188 amino acids in total, including an N-terminal 6-Histidine tag; made in house; host or cells: E. coli BL21
The test can be described thus: CAF assay (% CAF; method in Example 7, not in this part). In kind it is binding. The note with it: 10 uM compound, 1 h incubation.
Regarding `C=CC(=O)N1C[C@H](C)N(c2nc(=O)n3c4c(c(-c5ccc(F)cc5F)c(C(F)(F)F)cc24)SC[C@@H]3COCCOC)C[C@H]1C` [Example 498, (3S)-7-((2S,5R)-4-acryloyl-2,5-dimethylpiperazin-1-yl)-10-(2,4-difluorophenyl)-3-((2-methoxyethoxy)methyl)-9-(trifluoromethyl)-2H-[1,4]thiazino[2,3,4-ij]quinazolin-5(3H)-one], the “% CAF @ 10 uM, 1h” value was found to be 81.2%.
The same measure, in the same setting: with `C=CC(=O)N1C[C@H](C)N(c2nc(=O)n3c4c(c(-c5cc(Cl)c(F)cc5F)c(Cl)cc24)SC[C@@H]3CN2C[C@@H]3C[C@H]2CO3)C[C@H]1C` [Example 500, (3S)-3-((1S,4S)-2-oxa-5-azabicyclo[2.2.1]heptan-5-ylmethyl)-7-((2S,5R)-4-acryloyl-2,5-dimethylpiperazin-1-yl)-9-chloro-10-(5-chloro-2,4-difluorophenyl)-2H-[1,4]thiazino[2,3,4-ij]quinazolin-5(3H)-one] the figure was 50.6%; with `C=CC(=O)N1[C@H](C)CN(c2nc(=O)n3c4c(c(-c5cc(Cl)c(F)cc5F)c(Cl)cc24)SC[C@@H](OC)C3)C[C@@H]1C` [Example 530, (3S)-8-((3S,5R)-4-acryloyl-3,5-dimethylpiperazin-1-yl)-10-chloro-11-(5-chloro-2,4-difluorophenyl)-3-methoxy-3,4-dihydro-2H,6H-[1,4]thiazepino[2,3,4-ij]quinazolin-6-one], 92%.
On to `C=CC(=O)N1C2CC(=O)CC1CN(c1nc(=O)n3c4c(c(-c5ccc(F)cc5F)c(C(F)(F)F)cc14)SC[C@@H]3COC)C2` [Example 571, (3S)-7-(9-acryloyl-7-oxo-3,9-diazabicyclo[3.3.1]nonan-3-yl)-10-(2,4-difluorophenyl)-3-(methoxymethyl)-9-(trifluoromethyl)-2H-[1,4]thiazino[2,3,4-ij]quinazolin-5(3H)-one], for which the “% CAF @ 10 uM, 1h” value came to 95.2%.
Same read-out and setting: then `C=CC(=O)N1C[C@H](C)N(c2nc(=O)n3c4c(c(-c5cc(Cl)c(F)cc5F)c(C(F)(F)F)cc24)SC[C@@H]3CN2CCN(CC(F)F)CC2)C[C@H]1C` [Example 521, (3S)-7-((2S,5R)-4-acryloyl-2,5-dimethylpiperazin-1-yl)-10-(5-chloro-2,4-difluorophenyl)-3-((4-(2,2-difluoroethyl)piperazin-1-yl)methyl)-9-(trifluoromethyl)-2H-[1,4]thiazino[2,3,4-ij]quinazolin-5(3H)-one], with 40.6%; and `C=CC(=O)N1CCN(c2nc(=O)n3c4c(c(-c5ccc(F)c6cccnc56)c(Cl)cc24)SCC3)[C@@H](C)C1` [Example 441, 7-((S)-4-acryloyl-2-methylpiperazin-1-yl)-9-chloro-10-(5-fluoroquinolin-8-yl)-2,3-dihydro-5H-[1,4]thiazino[2,3,4-ij]quinazolin-5-one], with 78.5%.
Consider `C=CC(=O)N1CCN(c2nc(=O)n3c4c(c(-c5cc(Cl)c(F)cc5F)c(Cl)cc24)SC[C@@H]3CN2CCn3c(nnc3C(F)(F)F)C2)[C@@H](C)C1` [Example 447, (3S)-7-((S)-4-acryloyl-2-methylpiperazin-1-yl)-9-chloro-10-(5-chloro-2,4-difluorophenyl)-3-((3-(trifluoromethyl)-5,6-dihydro-[1,2,4]triazolo[4,3-a]pyrazin-7(8H)-yl)methyl)-2H-[1,4]thiazino[2,3,4-ij]quinazolin-5(3H)-one], for which the “% CAF @ 10 uM, 1h” value was determined as 63.3%.
For the compound `C=CC(=O)N1C[C@H](C)N(c2nc(=O)n3c4c(c(-c5ccc(F)cc5F)c(Cl)cc24)SC[C@@H]3CC2CCN(C3CC3)CC2)C[C@H]1C` [Example 478, (3S)-7-((2S,5R)-4-acryloyl-2,5-dimethylpiperazin-1-yl)-9-chloro-3-((1-cyclopropylpiperidin-4-yl)methyl)-10-(2,4-difluorophenyl)-2H-[1,4]thiazino[2,3,4-ij]quinazolin-5(3H)-one], the “% CAF @ 10 uM, 1h” value is on record as 70.7%.
Still for that read-out and setting: with `C=CC(=O)N1CCN(c2nc(=O)n3c4c(c(-c5cc(Cl)c(F)cc5F)c(C(F)(F)F)cc24)SC[C@@H](OC)C3)[C@@H](C)C1` [Example 583, (3S)-8-((S)-4-acryloyl-2-methylpiperazin-1-yl)-11-(5-chloro-2,4-difluorophenyl)-3-methoxy-10-(trifluoromethyl)-3,4-dihydro-2H,6H-[1,4]thiazepino[2,3,4-ij]quinazolin-6-one] the figure was 91%.

Still in this test, the particulars now being: 10 uM, 60 min; Table 2a.
For `C[C@H]1CN(C(=O)/C=C/C(F)(F)F)CCN1c1nc(=O)n2c3c(c(-c4cc(F)cc(Cl)c4)c(Cl)cc13)SCC2` [Example 65], the “% CAF 10 uM @ 60 min” value turned out to be 70%.

Staying with this test, now noted: 10 uM, 1 h; Table 3.
`C[C@H]1CN(C(=O)/C=C/C(F)(F)F)CCN1c1nc(=O)n2c3c(c(-c4cc(F)cc(Cl)c4)c(Cl)cc13)SCC2` [Example 65]: the “% CAF @ 10 uM, 1h” value is given as 3%.
For the compound `C=CC(=O)N1CCN(c2nc(=O)n3c4c(c(-c5ccc(F)cc5F)c(Cl)cc24)SCC3)CC1=O` [Example 166, 7-(4-acryloyl-3-oxopiperazin-1-yl)-9-chloro-10-(2,4-difluorophenyl)-2,3-dihydro-5H-[1,4]thiazino[2,3,4-ij]quinazolin-5-one], the “% CAF @ 10 uM, 1h” value was 65.5%.
As to `C=CC(=O)N1CCN(c2nc(=O)n3c4c(c(-c5cccc6cnn(C)c56)c(Cl)cc24)SCC3)[C@@H](C)C1` [Example 127, 7-((S)-4-acryloyl-2-methylpiperazin-1-yl)-9-chloro-10-(1-methyl-1H-indazol-7-yl)-2,3-dihydro-5H-[1,4]thiazino[2,3,4-ij]quinazolin-5-one], the “% CAF @ 10 uM, 1h” value is reported as 60%.
Still for that read-out and setting: then `C=CC(=O)N1CCN(c2nc(=O)n3c4c(c(-c5ccc(F)cc5F)c(Cl)cc24)S(=O)(=O)CC3)[C@@H](C)C1` [Example 149, (S)-7-((S)-4-acryloyl-2-methylpiperazin-1-yl)-9-chloro-10-(2,4-difluorophenyl)-2,3-dihydro-5H-[1,4]thiazino[2,3,4-ij]quinazolin-5-one 1,1-dioxide], with 52.8%; and `C=CC(=O)N1CCN(c2nc(=O)n3c4c(c(-c5ccc(F)cc5F)c(Cl)cc24)SCC3)C[C@H]1C#N` [Example 77, (2S)-1-acryloyl-4-(9-chloro-10-(2,4-difluorophenyl)-5-oxo-2,3-dihydro-5H-[1,4]thiazino[2,3,4-ij]quinazolin-7-yl)piperazine-2-carbonitrile], with 82%.
On the same count and under the same terms, with `C=CC(=O)N1C2COCC1CN(c1nc(=O)n3c4c(c(-c5ccc(F)cc5F)c(Cl)cc14)SCC3)C2` [Example 182, 7-(9-acryloyl-3-oxa-7,9-diazabicyclo[3.3.1]nonan-7-yl)-9-chloro-10-(2,4-difluorophenyl)-2,3-dihydro-5H-[1,4]thiazino[2,3,4-ij]quinazolin-5-one] the figure was 94.4%.
The same measure, in the same setting: with `C=CC(=O)N1CCN(c2nc(=O)n3c4c(c(-c5ccc(F)c(C#N)c5)c(Cl)cc24)SCC3)[C@@H](C)C1` [Example 83, (S)-5-(7-(4-acryloyl-2-methylpiperazin-1-yl)-9-chloro-5-oxo-2,3-dihydro-5H-[1,4]thiazino[2,3,4-ij]quinazolin-10-yl)-2-fluorobenzonitrile] the figure was 85.3%; with `C=CC(=O)N1CCN(c2nc(=O)n3c4c(c(-c5c(F)cccc5F)c(Cl)cc24)SCC3)[C@@H](C)C1` [Example 170, (S)-7-(4-acryloyl-2-methylpiperazin-1-yl)-9-chloro-10-(2,6-difluorophenyl)-2,3-dihydro-5H-[1,4]thiazino[2,3,4-ij]quinazolin-5-one], 75.9%.
